Experimental data from patent publication US4894453A, “2-substituted alkoxy-3-substituted-pyrazines” (Toyo Jozo Kabushiki Kaisha, priority 1986, dated 1990).

How the values were obtained:
[1] = test system: lipoperoxide generation in rat cerebrum; assay: Antioxidant activity (inhibition of lipoperoxide generation, method of Stocks et al.); format: biochemical; conditions: 100 μM; rat cerebrum supernatant, 37° C., 15 min, thiobarbituric acid, 532 nm; hydrochloride salt
Procedure: (§1) The pharmacological activity of the present compounds [1] is illustrated below. All the compounds [1] used in the pharmacological tests were tested in the form of the hydrochloride salt thereof.
Antioxidant activity is determined according to the method of Stocks et al. [Clin. Sci. Mol. Med., 47: 215 (1974)]. Rat cerebrum is added to ice-cooled 40 mM phosphate saline buffer solution (PBS) (pH 7.4, 4 ml buffer per 1 g cerebrum), homogenized and centrifuged (1000×g, 4° C., 10 min.) to obtain a supernatant solution. The supernatant solution is diluted fivefold with the above ice-cooled PBS solution, and to a 0.9 ml aliquot thereof is added a sample containing a compound [1] (0.1 ml, final concentration 100 μM) dissolved in ethanol. The resultant mixture is incubated at 37° C. for 15 minutes, 35% perchloric acid (0.2 ml) is added, and the mixture is ice-cooled to stop the reaction and centrifuged (1300×g, 4° C., 10 min.). 0.5 ml thiobarbituric acid (5 g/lit. of 50% acetic acid) is added to the supernatant solution (1 ml), so as to measure its absorbancy at 532 nm. The amount of lipoperoxide thus generated is expressed as an amount of malondialdehyde.

[2] = test system: PAF-induced aggregation (rabbit platelet plasma); assay: Platelet aggregation inhibitory action on PAF-induced aggregation; format: cell-based; conditions: Oryctolagus cuniculus, 0.05 h, PAF 10-50 μg/ml, 37° C., 3 min incubation, hydrochloride salt, read-out: inhibition ratio, PAF-induced platelet aggregation
Procedure: as §1
1. Platelet aggregation inhibition:
Sample solution containing a compound [1] (final concentration 500 or 100 μM) is added to rabbit platelet plasma to which was added 10% by volume of a 3.8% sodium citrate solution, and the mixture is incubated at 37° C. for 3 minutes. A platelet activation factor (PAF, final concentration 10-50 μg/ml) or collagen (final concentration 2.5 μg/ml) is added thereto as an aggregating agent, and platelet aggregation activity is measured with an aggregometer. The results of assays for PAF-induced aggregation are shown in Table 3, and those for collagen-induced aggregation are shown in Table 4, which tables show the strong platelet aggregation inhibitory activity of the compounds [1] of the present invention.

| Compound | inhibition ratio, lipoperoxide generation (antioxidant activity) [1] [%] | inhibition at 100 µM [2] [%] | inhibition at 500 µM ([2]; 500 μM) [%] |
| --- | --- | --- | --- |
| CCc1nc(Cc2ccccc2)c(OCC(=O)NCCN2CCCN(Cc3ccc(Cl)cc3)CC2)nc1CC [Compound 382] | 83 | – | – |
| CCCCCCc1nc2c(nc1OCCN1CCN(Cc3ccc(Cl)cc3)CC1)CCCC2 [Compound 568] | 61 | – | – |
| CCc1nc(OCCN2CCCN(Cc3ccc(OC)cc3)CC2)c(C(C)C)nc1CC [Compound 553] | – | 82 | – |
| CCCCCCCCc1nc2c(nc1OCCN1CCN(c3ccccc3OC)CC1)CCCC2 [Compound 578] | 88 | – | – |
| CCCCc1nc2c(nc1OCCN1CCCN(Cc3ccc(Cl)cc3)CC1)CCCC2 [Compound 520] | 83 | – | – |
| CCCCN1CCN(CCOc2nc(CC)c(CC)nc2C(C)C)CC1 [Compound 551] | – | 97 | – |
| CCCCCCCCCCCCc1nc2c(nc1OCCN1CCN(CCCC)CC1)CCCC2 [Compound 595] | 70 | 85 | – |
| CCCCCc1nc2c(nc1OCCN1CCN(CCCC)CC1)CCCC2 [Compound 560] | – | 97 | – |
| CCc1nc(OCCN2CCN(Cc3ccccc3)CC2)c(C(C)C)nc1CC [Compound 552] | – | 78 | – |
| CCCCCCCCCCc1nc2c(nc1OCCN1CCN(c3ccc(OC)cc3)CC1)CCCC2 [Compound 593] | 73 | – | – |
| CCCCCCCCCCc1nc2c(nc1OCCN1CCN(Cc3ccccc3)CC1)CCCC2 [Compound 589] | 74 | – | – |
| CCCCCCc1nc2c(nc1OCCN1CCN(c3ccccc3OC)CC1)CCCC2 [Compound 570] | 65 | 40 | – |
| CCCCCCCCCCCCc1nc2c(nc1OCCN1CCOCC1)CCCC2 [Compound 594] | 58 | – | – |
| CCCCCCCCCCCCCCc1nc2c(nc1OCCN1CCCN(Cc3ccc(Cl)cc3)CC1)CCCC2 [Compound 603] | 76 | – | – |
| CCCCCCCCCCCCCCCCc1nc2c(nc1OCCN1CCN(Cc3ccccc3)CC1)CCCC2 [Compound 608] | 55 | – | – |
| CCCCCCCCCCc1nc2c(nc1OCCN1CCCCC1)CCCC2 [Compound 586] | 68 | – | – |
| CCc1nc(C)c(C)nc1OC(C(=O)NCCN1CCN(Cc2ccccc2)CC1)c1ccccc1 (stereo not shown) [Compound 342] | – | 43 | – |
| O=C(COc1nc2c(nc1Cc1ccccc1)CCCC2)NCCN1CCN(c2ccc(Cl)cc2)CC1 [Compound 371] | 49 | – | – |
| CCCCCCCCCc1nc2c(nc1OCCN1CCN(Cc3ccccc3)CC1)CCCC2 [Compound 581] | 71 | – | – |
| CCCCCCCCCCc1nc2c(nc1OCCN1CCN(C(c3ccccc3)c3ccccc3)CC1)CCCC2 [Compound 591] | 59 | – | – |
| CCCCCCCCc1nc2c(nc1OCCN1CCN(c3ccccc3)CC1)CCCC2 [Compound 577] | 71 | – | – |
| Cc1nc(C)c(OCC(=O)N2CCN(C(=O)COc3nc(C)c(C)nc3C)CC2)nc1C [Compound 070] | – | – | 48 |
| CCCCCc1nc2c(nc1OCCN1CCN(Cc3ccccc3)CC1)CCCC2 [Compound 561] | – | 56 | – |
| CCCCCCCCCCCCc1nc2c(nc1OCCN1CCN(Cc3ccc(OC)cc3)CC1)CCCC2 [Compound 597] | 76 | – | – |
| CCCCCCCCCCCCc1nc2c(nc1OCCN1CCCN(Cc3ccc(F)cc3)CC1)CCCC2 [Compound 598] | 88 | – | – |
| CCCCCCCCCCCCCCCCc1nc2c(nc1OCCN1CCN(CCCC)CC1)CCCC2 [Compound 607] | 52 | – | – |

| Compound | inhibition ratio, lipoperoxide generation (antioxidant activity) [1] [%] | inhibition at 100 µM [2] [%] | inhibition at 500 µM ([2]; 500 μM) [%] |
| --- | --- | --- | --- |
| CCc1nc(C)c(C)nc1OC(C(=O)NCCN1CCN(Cc2ccc(Cl)cc2Cl)CC1)c1ccccc1 (stereo not shown) [Compound 345] | 54 | – | – |
| CCCCCCc1nc2c(nc1OCCN1CCN(Cc3ccccc3)CC1)CCCC2 [Compound 567] | – | 58 | – |
| CCc1nc(C)c(C)nc1OCCN1CCCN(Cc2ccc(Cl)cc2)CC1 [Compound 504] | – | 60 | – |
| CCc1nc(C)c(C)nc1OCCN1CCCN(Cc2ccc(F)cc2)CC1 [Compound 503] | – | 42 | – |
| CCCCCCCCCCCCCCc1nc2c(nc1OCCN1CCN(CCCC)CC1)CCCC2 [Compound 600] | 61 | 52 | – |
| CCc1nc(C)c(C)nc1OC(C(=O)NCCN1CCCN(Cc2ccc(Cl)cc2)CC1)c1ccccc1 (stereo not shown) [Compound 348] | 62 | 70 | – |
| O=C(COc1nc2c(nc1Cc1ccccc1)CCCC2)NCCN1CCCN(Cc2ccc(F)cc2)CC1 [Compound 372] | 64 | – | – |
| CCc1nc(C)c(C)nc1OC(C(=O)NCCN1CCOCC1)c1ccccc1 (stereo not shown) [Compound 341] | – | 42 | – |
| Cc1nc(Cc2ccccc2)c(OCCN2CCCN(Cc3ccc(Cl)cc3)CC2)nc1C [Compound 516] | 75 | – | – |
| CCCCCCCCc1nc2c(nc1OCCN1CCN(Cc3ccc(Cl)cc3)CC1)CCCC2 [Compound 575] | 79 | – | – |
| Cc1nc(C)c(OCCN2CCCN(Cc3ccc(Cl)cc3)CC2)nc1C [Compound 541] | – | 44 | – |
| CCCCCCCCc1nc2c(nc1OCCN1CCN(Cc3ccccc3)CC1)CCCC2 [Compound 574] | 71 | – | – |
| CCCCCCCCCc1nc2c(nc1OCCN1CCCN(Cc3ccc(Cl)cc3)CC1)CCCC2 [Compound 583] | 82 | – | – |
| CCCCCCCCCCCCCCc1nc2c(nc1OCCN1CCN(Cc3ccc(F)cc3)CC1)CCCC2 [Compound 602] | 64 | – | – |
| CCCCCCCc1nc2c(nc1OCCN1CCN(CCCC)CC1)CCCC2 [Compound 571] | – | 88 | – |
| CCCCCCCCCCc1nc2c(nc1OCCN1CCN(Cc3ccc(Cl)cc3)CC1)CCCC2 [Compound 590] | 74 | – | – |
| CCCCCCCCCCCCc1nc2c(nc1OCCN1CCN(Cc3ccccc3)CC1)CCCC2 [Compound 596] | 73 | – | – |
| CCCCCCCCc1nc2c(nc1OCCN1CCCN(Cc3ccc(F)cc3)CC1)CCCC2 [Compound 576] | 85 | – | – |
| CCCCCCc1nc2c(nc1OCCN1CCN(CCCC)CC1)CCCC2 [Compound 565] | – | 94 | – |
| CCCCCCCCCCc1nc2c(nc1OCCN1CCCN(Cc3ccc(F)cc3)CC1)CCCC2 [Compound 592] | 85 | – | – |
| CCCCCCc1nc2c(nc1OCCN1CCCN(Cc3ccc(F)cc3)CC1)CCCC2 [Compound 569] | 81 | – | – |
| CCCCCCCCCCCCCCc1nc2c(nc1OCCN1CCN(Cc3ccccc3)CC1)CCCC2 [Compound 601] | 67 | – | – |
| O=C(COc1nc2c(nc1Cc1ccccc1)CCCC2)NCCN1CCN(c2ccccc2)CC1 [Compound 373] | 49 | – | – |
| CCCCCCCCCCCCc1nc2c(nc1OCCN1CCN(c3ccccc3OC)CC1)CCCC2 [Compound 599] | 70 | – | – |
| CCc1nc(Cc2ccccc2)c(OCC(=O)NCCN2CCN(Cc3ccc(Cl)cc3)CC2)nc1CC [Compound 379] | 50 | – | – |
